Data taken from the NIST ThermoML archive (doi:10.1016/j.jct.2015.11.023).
Numbers after ± are expanded uncertainties.

Columns and labels:
[1] = refractive index (Na D-line) (dimensionless); wn = mass fraction of the nth substance listed; details: 100 kPa, Liquid, Standard Abbe refractometry
[2] = wn = mass fraction of the nth substance listed; details: for surface tension liquid-gas: Maximal bubble pressure; for mass density: 100 kPa, Liquid, Vibrating tube method

CCCCC[n+]1ccccc1.N#C[N-]C#N [1-pentylpyridinium dicyanamide] + O
Details | mass density [kg/m3] | refractive index | surface tension liquid-gas [mN/m]
[1], 303.15 K, w2 = 0.00159 | – | 1.5285 ± 0.003 | –
[1], 303.15 K, w2 = 0.00322 | – | 1.5282 ± 0.003 | –
[1], 303.15 K, w2 = 0.00513 | – | 1.5279 ± 0.003 | –
[1], 303.15 K, w2 = 0.00661 | – | 1.5277 ± 0.003 | –
[1], 303.15 K, w2 = 0.00821 | – | 1.5274 ± 0.003 | –
[1], 308.15 K, w2 = 0.00159 | – | 1.527 ± 0.003 | –
[1], 308.15 K, w2 = 0.00322 | – | 1.5268 ± 0.003 | –
[1], 308.15 K, w2 = 0.00513 | – | 1.5265 ± 0.003 | –
[1], 308.15 K, w2 = 0.00661 | – | 1.5263 ± 0.003 | –
[1], 308.15 K, w2 = 0.00821 | – | 1.5261 ± 0.003 | –
[1], 313.15 K, w2 = 0.00159 | – | 1.5255 ± 0.003 | –
[1], 313.15 K, w2 = 0.00322 | – | 1.5253 ± 0.003 | –
[1], 313.15 K, w2 = 0.00513 | – | 1.525 ± 0.003 | –
[1], 313.15 K, w2 = 0.00661 | – | 1.5248 ± 0.003 | –
[1], 313.15 K, w2 = 0.00821 | – | 1.5245 ± 0.003 | –
[1], 318.15 K, w2 = 0.00159 | – | 1.5241 ± 0.003 | –
[1], 318.15 K, w2 = 0.00322 | – | 1.5239 ± 0.003 | –
[1], 318.15 K, w2 = 0.00513 | – | 1.5236 ± 0.003 | –
[1], 318.15 K, w2 = 0.00661 | – | 1.5234 ± 0.003 | –
[1], 318.15 K, w2 = 0.00821 | – | 1.5232 ± 0.003 | –
[1], 323.15 K, w2 = 0.00159 | – | 1.5228 ± 0.003 | –
[1], 323.15 K, w2 = 0.00322 | – | 1.5225 ± 0.003 | –
[1], 323.15 K, w2 = 0.00513 | – | 1.5222 ± 0.003 | –
[1], 323.15 K, w2 = 0.00661 | – | 1.522 ± 0.003 | –
[1], 323.15 K, w2 = 0.00821 | – | 1.5217 ± 0.003 | –
[1], 328.15 K, w2 = 0.00159 | – | 1.521 ± 0.003 | –
[1], 328.15 K, w2 = 0.00322 | – | 1.5208 ± 0.003 | –
[1], 328.15 K, w2 = 0.00513 | – | 1.5205 ± 0.003 | –
[1], 328.15 K, w2 = 0.00661 | – | 1.5203 ± 0.003 | –
[1], 328.15 K, w2 = 0.00821 | – | 1.5201 ± 0.003 | –
[1], 333.15 K, w2 = 0.00159 | – | 1.5192 ± 0.003 | –
[1], 333.15 K, w2 = 0.00322 | – | 1.519 ± 0.003 | –
[1], 333.15 K, w2 = 0.00513 | – | 1.5188 ± 0.003 | –
[1], 333.15 K, w2 = 0.00661 | – | 1.5186 ± 0.003 | –
[1], 333.15 K, w2 = 0.00821 | – | 1.5184 ± 0.003 | –
[1], 338.15 K, w2 = 0.00159 | – | 1.5177 ± 0.003 | –
[1], 338.15 K, w2 = 0.00322 | – | 1.5175 ± 0.003 | –
[1], 338.15 K, w2 = 0.00513 | – | 1.5172 ± 0.003 | –
[1], 338.15 K, w2 = 0.00661 | – | 1.517 ± 0.003 | –
[1], 338.15 K, w2 = 0.00821 | – | 1.5168 ± 0.003 | –
[2], 303.15 K, w2 = 0.00124 | 1049.94 ± 2 | – | –
[2], 303.15 K, w2 = 0.00159 | – | – | 53.3 ± 0.5
[2], 303.15 K, w2 = 0.00269 | 1049.85 ± 2 | – | –
[2], 303.15 K, w2 = 0.00309 | – | – | 53.7 ± 0.5
[2], 303.15 K, w2 = 0.00423 | 1049.72 ± 2 | – | –
[2], 303.15 K, w2 = 0.00463 | – | – | 54 ± 0.5
[2], 303.15 K, w2 = 0.00567 | 1049.59 ± 2 | – | –
[2], 303.15 K, w2 = 0.00611 | – | – | 54.3 ± 0.5
[2], 303.15 K, w2 = 0.00714 | 1049.48 ± 2 | – | –
[2], 303.15 K, w2 = 0.00762 | – | – | 54.6 ± 0.5
[2], 308.15 K, w2 = 0.00124 | 1046.92 ± 2 | – | –
[2], 308.15 K, w2 = 0.00159 | – | – | 53.1 ± 0.5
[2], 308.15 K, w2 = 0.00269 | 1046.83 ± 2 | – | –
[2], 308.15 K, w2 = 0.00309 | – | – | 53.3 ± 0.5
[2], 308.15 K, w2 = 0.00423 | 1046.7 ± 2 | – | –
[2], 308.15 K, w2 = 0.00463 | – | – | 53.7 ± 0.5
[2], 308.15 K, w2 = 0.00567 | 1046.57 ± 2 | – | –
[2], 308.15 K, w2 = 0.00611 | – | – | 54 ± 0.5
[2], 308.15 K, w2 = 0.00714 | 1046.45 ± 2 | – | –
[2], 308.15 K, w2 = 0.00762 | – | – | 54.3 ± 0.5
[2], 313.15 K, w2 = 0.00124 | 1043.92 ± 2 | – | –
[2], 313.15 K, w2 = 0.00159 | – | – | 52.8 ± 0.5
[2], 313.15 K, w2 = 0.00269 | 1043.82 ± 2 | – | –
[2], 313.15 K, w2 = 0.00309 | – | – | 53 ± 0.5
[2], 313.15 K, w2 = 0.00423 | 1043.69 ± 2 | – | –
[2], 313.15 K, w2 = 0.00463 | – | – | 53.4 ± 0.5
[2], 313.15 K, w2 = 0.00567 | 1043.56 ± 2 | – | –
[2], 313.15 K, w2 = 0.00611 | – | – | 53.7 ± 0.5
[2], 313.15 K, w2 = 0.00714 | 1043.44 ± 2 | – | –
[2], 313.15 K, w2 = 0.00762 | – | – | 54 ± 0.5
[2], 318.15 K, w2 = 0.00124 | 1040.93 ± 2 | – | –
[2], 318.15 K, w2 = 0.00159 | – | – | 52.4 ± 0.5
[2], 318.15 K, w2 = 0.00269 | 1040.82 ± 2 | – | –
[2], 318.15 K, w2 = 0.00309 | – | – | 52.7 ± 0.5
[2], 318.15 K, w2 = 0.00423 | 1040.7 ± 2 | – | –
[2], 318.15 K, w2 = 0.00463 | – | – | 53 ± 0.5
[2], 318.15 K, w2 = 0.00567 | 1040.56 ± 2 | – | –
[2], 318.15 K, w2 = 0.00611 | – | – | 53.3 ± 0.5
[2], 318.15 K, w2 = 0.00714 | 1040.44 ± 2 | – | –
[2], 318.15 K, w2 = 0.00762 | – | – | 53.6 ± 0.5
[2], 323.15 K, w2 = 0.00124 | 1037.95 ± 2 | – | –
[2], 323.15 K, w2 = 0.00159 | – | – | 52.1 ± 0.5
[2], 323.15 K, w2 = 0.00269 | 1037.84 ± 2 | – | –
[2], 323.15 K, w2 = 0.00309 | – | – | 52.3 ± 0.5
[2], 323.15 K, w2 = 0.00423 | 1037.72 ± 2 | – | –
[2], 323.15 K, w2 = 0.00463 | – | – | 52.7 ± 0.5
[2], 323.15 K, w2 = 0.00567 | 1037.57 ± 2 | – | –
[2], 323.15 K, w2 = 0.00611 | – | – | 53 ± 0.5
[2], 323.15 K, w2 = 0.00714 | 1037.45 ± 2 | – | –
[2], 323.15 K, w2 = 0.00762 | – | – | 53.3 ± 0.5
[2], 328.15 K, w2 = 0.00124 | 1034.99 ± 2 | – | –
[2], 328.15 K, w2 = 0.00159 | – | – | 51.8 ± 0.5
[2], 328.15 K, w2 = 0.00269 | 1034.88 ± 2 | – | –
[2], 328.15 K, w2 = 0.00309 | – | – | 52 ± 0.5
[2], 328.15 K, w2 = 0.00423 | 1034.75 ± 2 | – | –
[2], 328.15 K, w2 = 0.00463 | – | – | 52.4 ± 0.5
[2], 328.15 K, w2 = 0.00567 | 1034.61 ± 2 | – | –
[2], 328.15 K, w2 = 0.00611 | – | – | 52.7 ± 0.5
[2], 328.15 K, w2 = 0.00714 | 1034.48 ± 2 | – | –
[2], 328.15 K, w2 = 0.00762 | – | – | 53 ± 0.5
[2], 333.15 K, w2 = 0.00124 | 1032.05 ± 2 | – | –
[2], 333.15 K, w2 = 0.00159 | – | – | 51.5 ± 0.5
[2], 333.15 K, w2 = 0.00269 | 1031.93 ± 2 | – | –
[2], 333.15 K, w2 = 0.00309 | – | – | 51.8 ± 0.5
[2], 333.15 K, w2 = 0.00423 | 1031.8 ± 2 | – | –
[2], 333.15 K, w2 = 0.00463 | – | – | 52.1 ± 0.5
[2], 333.15 K, w2 = 0.00567 | 1031.65 ± 2 | – | –
[2], 333.15 K, w2 = 0.00611 | – | – | 52.4 ± 0.5
[2], 333.15 K, w2 = 0.00714 | 1031.52 ± 2 | – | –
[2], 333.15 K, w2 = 0.00762 | – | – | 52.7 ± 0.5
[2], 338.15 K, w2 = 0.00124 | 1029.11 ± 2 | – | –
[2], 338.15 K, w2 = 0.00159 | – | – | 51.3 ± 0.5
[2], 338.15 K, w2 = 0.00269 | 1029 ± 2 | – | –
[2], 338.15 K, w2 = 0.00309 | – | – | 51.6 ± 0.5
[2], 338.15 K, w2 = 0.00423 | 1028.86 ± 2 | – | –
[2], 338.15 K, w2 = 0.00463 | – | – | 51.9 ± 0.5
[2], 338.15 K, w2 = 0.00567 | 1028.71 ± 2 | – | –
[2], 338.15 K, w2 = 0.00611 | – | – | 52.2 ± 0.5
[2], 338.15 K, w2 = 0.00714 | 1028.58 ± 2 | – | –
[2], 338.15 K, w2 = 0.00762 | – | – | 52.4 ± 0.5
